The values below come from PMC9329436, “Optimization of the 4-anilinoquin(az)oline scaffold as epidermal growth factor receptor (EGFR) inhibitors for chordoma utilizing a toxicology profiling assay platform” (Scientific Reports, 2022).

Where two headings read alike, the source gives them in different places.

Type in all cases: biochemical
Assay [1] concerns the target T1, 320 wild-type protein kinases (Homo sapiens, UniProt Q06418).
T1 sequence (Q06418 41-890): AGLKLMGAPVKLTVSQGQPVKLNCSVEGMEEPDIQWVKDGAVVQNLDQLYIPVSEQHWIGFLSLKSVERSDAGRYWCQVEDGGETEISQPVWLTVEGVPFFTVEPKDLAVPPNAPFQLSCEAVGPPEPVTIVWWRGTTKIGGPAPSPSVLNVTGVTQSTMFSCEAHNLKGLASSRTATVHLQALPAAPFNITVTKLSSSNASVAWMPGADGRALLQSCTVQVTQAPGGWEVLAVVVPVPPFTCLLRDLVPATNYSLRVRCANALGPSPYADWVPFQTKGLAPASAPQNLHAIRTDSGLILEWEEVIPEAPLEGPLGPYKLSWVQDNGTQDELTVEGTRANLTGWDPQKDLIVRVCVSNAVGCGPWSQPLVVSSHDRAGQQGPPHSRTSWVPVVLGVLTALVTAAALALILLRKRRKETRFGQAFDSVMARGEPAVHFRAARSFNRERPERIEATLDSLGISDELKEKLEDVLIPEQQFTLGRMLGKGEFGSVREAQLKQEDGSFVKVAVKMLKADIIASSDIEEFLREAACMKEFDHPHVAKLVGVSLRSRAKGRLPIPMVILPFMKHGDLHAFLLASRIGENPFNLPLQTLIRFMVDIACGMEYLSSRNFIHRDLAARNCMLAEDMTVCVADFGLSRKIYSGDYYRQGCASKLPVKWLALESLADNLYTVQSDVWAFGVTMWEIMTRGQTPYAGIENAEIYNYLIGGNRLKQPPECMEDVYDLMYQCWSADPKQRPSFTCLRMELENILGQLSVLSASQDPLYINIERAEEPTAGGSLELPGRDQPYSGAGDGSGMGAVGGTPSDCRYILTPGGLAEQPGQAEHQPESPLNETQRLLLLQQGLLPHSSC
The settings on record: kinase TYRO3, singlicate. The text has this: (§1) Table S4. Profiling of two compounds at two concentrations against 320 wild-type protein kinases; singlicate measurement; Residual activities (% of control).

For assay [2], the target named is 320 wild-type protein kinases (Homo sapiens, UniProt Q16620). The note with it: kinase TRK-B, singlicate.
From the text: as §1

In assay [3] the target is 320 wild-type protein kinases (Homo sapiens, UniProt Q96RR4). The settings on record: singlicate.
From the text: as §1

Assay [4] concerns the target 320 wild-type protein kinases (Homo sapiens, UniProt P57059). The note with it: kinase SIK1, singlicate.
From the text: as §1

Assay [5] deals with T2, 320 wild-type protein kinases (Homo sapiens, UniProt Q13976).
T2 sequence (Q13976 1-671): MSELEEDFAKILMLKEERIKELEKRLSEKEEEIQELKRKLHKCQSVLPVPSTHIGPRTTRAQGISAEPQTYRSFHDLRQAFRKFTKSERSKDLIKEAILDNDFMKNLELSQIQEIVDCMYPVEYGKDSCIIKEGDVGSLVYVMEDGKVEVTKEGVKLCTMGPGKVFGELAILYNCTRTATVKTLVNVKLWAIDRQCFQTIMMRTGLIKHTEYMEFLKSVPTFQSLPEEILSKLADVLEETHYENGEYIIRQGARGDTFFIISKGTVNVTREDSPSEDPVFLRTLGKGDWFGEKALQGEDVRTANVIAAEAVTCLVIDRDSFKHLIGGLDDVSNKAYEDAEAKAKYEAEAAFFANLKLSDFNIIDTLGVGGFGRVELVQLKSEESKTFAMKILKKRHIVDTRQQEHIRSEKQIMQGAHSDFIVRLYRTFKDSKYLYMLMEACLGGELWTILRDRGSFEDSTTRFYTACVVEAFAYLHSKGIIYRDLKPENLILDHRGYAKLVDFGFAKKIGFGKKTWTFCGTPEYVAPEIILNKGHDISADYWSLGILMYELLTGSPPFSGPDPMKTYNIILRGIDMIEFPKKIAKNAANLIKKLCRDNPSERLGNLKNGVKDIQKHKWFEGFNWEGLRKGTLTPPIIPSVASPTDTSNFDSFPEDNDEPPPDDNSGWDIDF
The settings on record: kinase PRKG1, singlicate.
From the text: as §1

Assay [6] has as its target 320 wild-type protein kinases (Homo sapiens, UniProt P08922). The note with it: kinase ROS, singlicate.
From the text: as §1

The target in assay [7] is T3, 320 wild-type protein kinases (Homo sapiens, UniProt O15530).
T3 sequence (O15530 1-556): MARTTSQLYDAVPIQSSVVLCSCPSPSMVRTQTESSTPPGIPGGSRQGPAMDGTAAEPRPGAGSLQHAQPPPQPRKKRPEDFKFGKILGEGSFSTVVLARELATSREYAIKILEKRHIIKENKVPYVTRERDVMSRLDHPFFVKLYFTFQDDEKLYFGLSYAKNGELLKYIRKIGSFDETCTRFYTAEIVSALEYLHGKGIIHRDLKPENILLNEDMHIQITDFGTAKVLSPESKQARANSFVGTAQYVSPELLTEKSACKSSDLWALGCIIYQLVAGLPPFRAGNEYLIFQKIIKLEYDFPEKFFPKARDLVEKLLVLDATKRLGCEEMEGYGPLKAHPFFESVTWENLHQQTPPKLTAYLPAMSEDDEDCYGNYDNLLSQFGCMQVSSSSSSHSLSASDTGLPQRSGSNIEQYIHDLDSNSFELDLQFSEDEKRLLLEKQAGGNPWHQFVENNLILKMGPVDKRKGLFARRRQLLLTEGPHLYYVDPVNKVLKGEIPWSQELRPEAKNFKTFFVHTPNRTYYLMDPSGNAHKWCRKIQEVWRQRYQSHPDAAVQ
The settings on record: singlicate.
From the text: as §1

Assay [8] has as its target 320 wild-type protein kinases (Homo sapiens, UniProt O60674). The settings on record: singlicate.
From the text: as §1

The target of assay [9] is 320 wild-type protein kinases (Homo sapiens, UniProt Q9NQU5). The note with it: singlicate.
From the text: as §1

Assay [10] deals with 320 wild-type protein kinases (Homo sapiens, UniProt P19525). The note with it: singlicate.
From the text: as §1

Chain of 320 wild-type protein kinases (Homo sapiens, UniProt P19525) (P19525 whole entry): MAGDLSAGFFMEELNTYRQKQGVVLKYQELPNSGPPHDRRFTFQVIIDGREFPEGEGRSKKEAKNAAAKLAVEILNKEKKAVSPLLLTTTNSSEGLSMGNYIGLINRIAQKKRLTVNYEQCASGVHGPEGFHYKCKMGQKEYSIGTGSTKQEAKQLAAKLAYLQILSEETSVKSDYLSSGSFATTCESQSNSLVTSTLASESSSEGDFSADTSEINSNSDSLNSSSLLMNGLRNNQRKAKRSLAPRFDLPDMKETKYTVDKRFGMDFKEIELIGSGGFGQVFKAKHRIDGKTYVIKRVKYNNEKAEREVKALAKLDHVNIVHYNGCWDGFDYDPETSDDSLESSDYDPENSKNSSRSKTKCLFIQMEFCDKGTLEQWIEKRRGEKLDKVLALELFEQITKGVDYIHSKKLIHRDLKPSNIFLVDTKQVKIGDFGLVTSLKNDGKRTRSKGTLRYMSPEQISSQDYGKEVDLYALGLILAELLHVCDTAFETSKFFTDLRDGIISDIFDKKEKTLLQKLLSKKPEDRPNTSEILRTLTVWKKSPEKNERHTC
Chain of 320 wild-type protein kinases (Homo sapiens, UniProt Q16620) (Q16620 32-822): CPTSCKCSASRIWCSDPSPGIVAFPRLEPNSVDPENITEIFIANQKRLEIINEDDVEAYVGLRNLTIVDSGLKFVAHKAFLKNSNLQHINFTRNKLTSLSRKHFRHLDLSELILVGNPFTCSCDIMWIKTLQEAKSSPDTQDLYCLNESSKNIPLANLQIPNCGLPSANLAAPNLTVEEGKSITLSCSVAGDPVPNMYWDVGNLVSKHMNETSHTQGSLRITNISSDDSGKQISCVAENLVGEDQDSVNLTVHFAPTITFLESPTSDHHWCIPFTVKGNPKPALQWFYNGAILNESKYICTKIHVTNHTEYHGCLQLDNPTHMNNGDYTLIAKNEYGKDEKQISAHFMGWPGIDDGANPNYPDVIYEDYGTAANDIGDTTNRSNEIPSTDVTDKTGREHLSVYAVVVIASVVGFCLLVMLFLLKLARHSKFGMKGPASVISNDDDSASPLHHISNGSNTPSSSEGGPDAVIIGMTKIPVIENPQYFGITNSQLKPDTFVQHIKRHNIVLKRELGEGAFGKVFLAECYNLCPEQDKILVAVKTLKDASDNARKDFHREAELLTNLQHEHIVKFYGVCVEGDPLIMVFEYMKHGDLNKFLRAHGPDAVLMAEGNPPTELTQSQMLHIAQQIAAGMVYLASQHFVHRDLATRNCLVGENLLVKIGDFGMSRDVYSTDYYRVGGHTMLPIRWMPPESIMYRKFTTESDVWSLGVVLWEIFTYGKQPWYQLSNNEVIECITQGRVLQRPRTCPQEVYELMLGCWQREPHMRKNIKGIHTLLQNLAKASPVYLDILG
Chain of 320 wild-type protein kinases (Homo sapiens, UniProt Q9NQU5) (Q9NQU5 whole entry): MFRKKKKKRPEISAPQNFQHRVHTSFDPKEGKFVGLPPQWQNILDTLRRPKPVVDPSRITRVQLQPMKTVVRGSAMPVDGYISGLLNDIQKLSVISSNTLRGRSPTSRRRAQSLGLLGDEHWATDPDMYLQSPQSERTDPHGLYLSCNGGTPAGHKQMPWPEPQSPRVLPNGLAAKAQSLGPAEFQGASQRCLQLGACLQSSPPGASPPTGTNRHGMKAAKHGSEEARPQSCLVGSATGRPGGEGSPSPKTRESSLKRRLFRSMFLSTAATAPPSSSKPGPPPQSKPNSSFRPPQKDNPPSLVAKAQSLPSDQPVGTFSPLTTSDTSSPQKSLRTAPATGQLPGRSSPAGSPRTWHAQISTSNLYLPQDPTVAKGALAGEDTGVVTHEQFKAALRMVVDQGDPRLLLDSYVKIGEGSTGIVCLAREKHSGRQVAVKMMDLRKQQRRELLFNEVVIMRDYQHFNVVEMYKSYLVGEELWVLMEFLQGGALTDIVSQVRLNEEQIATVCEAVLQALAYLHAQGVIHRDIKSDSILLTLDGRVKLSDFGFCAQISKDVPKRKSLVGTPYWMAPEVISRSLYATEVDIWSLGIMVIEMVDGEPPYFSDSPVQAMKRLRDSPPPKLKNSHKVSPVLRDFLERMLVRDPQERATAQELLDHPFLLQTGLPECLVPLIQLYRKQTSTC
Chain of 320 wild-type protein kinases (Homo sapiens, UniProt P57059) (P57059 whole entry): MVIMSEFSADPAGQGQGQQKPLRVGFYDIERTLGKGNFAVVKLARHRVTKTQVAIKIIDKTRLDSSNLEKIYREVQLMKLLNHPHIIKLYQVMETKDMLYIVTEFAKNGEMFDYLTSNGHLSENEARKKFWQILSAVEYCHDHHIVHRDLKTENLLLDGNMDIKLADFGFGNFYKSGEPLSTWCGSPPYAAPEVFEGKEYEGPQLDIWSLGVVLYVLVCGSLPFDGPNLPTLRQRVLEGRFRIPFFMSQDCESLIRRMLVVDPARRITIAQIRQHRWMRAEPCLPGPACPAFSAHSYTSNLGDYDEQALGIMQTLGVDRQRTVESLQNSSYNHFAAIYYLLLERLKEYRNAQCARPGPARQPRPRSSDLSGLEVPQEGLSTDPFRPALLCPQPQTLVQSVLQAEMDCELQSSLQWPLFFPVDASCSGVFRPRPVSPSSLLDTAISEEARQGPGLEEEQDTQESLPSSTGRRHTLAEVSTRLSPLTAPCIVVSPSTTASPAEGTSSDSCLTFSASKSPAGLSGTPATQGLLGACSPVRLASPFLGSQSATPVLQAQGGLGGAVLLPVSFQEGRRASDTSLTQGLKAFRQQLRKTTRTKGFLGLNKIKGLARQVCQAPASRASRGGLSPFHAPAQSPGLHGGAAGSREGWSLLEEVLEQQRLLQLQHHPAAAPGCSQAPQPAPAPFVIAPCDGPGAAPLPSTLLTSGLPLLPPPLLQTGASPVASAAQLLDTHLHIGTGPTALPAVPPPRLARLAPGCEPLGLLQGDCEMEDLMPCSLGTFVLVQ
Chain of 320 wild-type protein kinases (Homo sapiens, UniProt P08922) (P08922 28-2347): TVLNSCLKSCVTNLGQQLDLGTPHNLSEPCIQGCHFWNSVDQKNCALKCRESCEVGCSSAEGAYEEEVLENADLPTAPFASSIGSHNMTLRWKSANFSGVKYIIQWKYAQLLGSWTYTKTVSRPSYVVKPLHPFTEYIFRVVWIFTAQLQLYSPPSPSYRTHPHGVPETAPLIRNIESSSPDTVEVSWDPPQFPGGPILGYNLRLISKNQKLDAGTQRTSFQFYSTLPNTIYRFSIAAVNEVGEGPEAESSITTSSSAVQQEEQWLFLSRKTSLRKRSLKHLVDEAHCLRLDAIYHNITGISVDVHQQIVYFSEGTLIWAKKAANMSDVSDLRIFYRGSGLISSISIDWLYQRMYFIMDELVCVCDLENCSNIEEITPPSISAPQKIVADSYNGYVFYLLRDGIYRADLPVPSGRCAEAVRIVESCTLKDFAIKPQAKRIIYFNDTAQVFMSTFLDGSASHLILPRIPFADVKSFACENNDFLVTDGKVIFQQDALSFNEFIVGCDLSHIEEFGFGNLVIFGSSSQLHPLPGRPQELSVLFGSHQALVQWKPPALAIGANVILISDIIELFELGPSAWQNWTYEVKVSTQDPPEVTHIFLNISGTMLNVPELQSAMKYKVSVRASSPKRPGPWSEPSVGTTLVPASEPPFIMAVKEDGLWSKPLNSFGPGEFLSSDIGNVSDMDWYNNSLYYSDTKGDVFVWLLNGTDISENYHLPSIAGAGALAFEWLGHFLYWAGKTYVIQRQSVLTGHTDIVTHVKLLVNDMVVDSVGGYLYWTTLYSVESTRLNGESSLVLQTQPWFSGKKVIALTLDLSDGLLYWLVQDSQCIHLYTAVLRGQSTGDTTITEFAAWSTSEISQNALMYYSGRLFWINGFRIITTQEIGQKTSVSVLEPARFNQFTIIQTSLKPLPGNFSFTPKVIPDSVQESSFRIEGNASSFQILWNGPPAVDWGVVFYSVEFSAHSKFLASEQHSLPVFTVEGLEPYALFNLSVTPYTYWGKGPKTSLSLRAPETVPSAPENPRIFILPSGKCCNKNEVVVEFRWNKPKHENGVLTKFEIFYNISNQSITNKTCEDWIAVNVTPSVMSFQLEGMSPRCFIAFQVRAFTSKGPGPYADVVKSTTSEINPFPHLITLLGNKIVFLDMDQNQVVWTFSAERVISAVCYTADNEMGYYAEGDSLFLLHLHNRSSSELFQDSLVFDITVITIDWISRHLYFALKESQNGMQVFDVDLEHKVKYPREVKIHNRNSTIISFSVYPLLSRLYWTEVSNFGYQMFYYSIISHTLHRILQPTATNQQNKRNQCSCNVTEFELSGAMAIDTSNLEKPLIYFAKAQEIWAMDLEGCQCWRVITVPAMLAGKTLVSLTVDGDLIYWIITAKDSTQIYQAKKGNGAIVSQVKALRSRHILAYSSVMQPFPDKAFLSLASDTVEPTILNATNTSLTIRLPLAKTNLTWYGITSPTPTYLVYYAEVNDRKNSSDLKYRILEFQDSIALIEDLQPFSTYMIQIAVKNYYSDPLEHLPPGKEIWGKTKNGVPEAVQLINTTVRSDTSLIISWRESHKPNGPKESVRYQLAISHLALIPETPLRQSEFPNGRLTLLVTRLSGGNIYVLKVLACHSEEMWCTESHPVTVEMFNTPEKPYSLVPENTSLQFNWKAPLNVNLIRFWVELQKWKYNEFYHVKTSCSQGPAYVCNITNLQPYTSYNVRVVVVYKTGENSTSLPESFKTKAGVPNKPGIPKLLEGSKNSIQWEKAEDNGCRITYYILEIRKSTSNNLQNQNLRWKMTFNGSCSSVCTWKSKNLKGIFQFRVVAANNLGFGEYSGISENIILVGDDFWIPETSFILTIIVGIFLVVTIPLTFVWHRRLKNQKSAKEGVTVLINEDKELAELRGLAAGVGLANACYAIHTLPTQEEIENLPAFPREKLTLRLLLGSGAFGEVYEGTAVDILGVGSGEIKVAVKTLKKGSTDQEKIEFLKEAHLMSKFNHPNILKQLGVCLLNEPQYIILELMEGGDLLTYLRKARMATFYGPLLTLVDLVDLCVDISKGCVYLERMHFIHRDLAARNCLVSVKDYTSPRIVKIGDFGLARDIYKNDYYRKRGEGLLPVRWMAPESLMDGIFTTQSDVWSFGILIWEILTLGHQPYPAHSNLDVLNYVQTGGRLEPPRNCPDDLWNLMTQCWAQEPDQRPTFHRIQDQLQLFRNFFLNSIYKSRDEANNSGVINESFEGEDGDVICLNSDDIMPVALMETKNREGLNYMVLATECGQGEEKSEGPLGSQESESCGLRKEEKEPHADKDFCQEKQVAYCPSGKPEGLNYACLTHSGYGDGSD

In the case of `C#Cc1cc(Nc2ncnc3cc(OC)c(OC)cc23)ccc1Cl` [Compound 45], the figures for the “Residual activity, TYRO3” value in [1] (assay conc. 1.0E-06 M) and in assay [1] (assay conc. 1.0E-07 M) were 58 % of control and 93 % of control, respectively. Moreover, the “Residual activity, TRK-B” value in [2] (assay conc. 1.0E-06 M) is 97 % of control; in assay [2] (assay conc. 1.0E-07 M), 98 % of control. The Residual activity is 74 % of control in [3] (CAMKK2, 1.0E-06 M); 79 % of control in [3] (CAMKK2, 1.0E-07 M); 79 % of control in [7] (PDK1, 1.0E-06 M); 93 % of control in assay [7] (PDK1, 1.0E-07 M); 92 % of control in assay [8] (JAK2, 1.0E-06 M); 102 % of control in [8] (JAK2, 1.0E-07 M). In addition, the Residual activity is on record as 87 % of control in assay [9] (PAK6, 1.0E-06 M); 98 % of control in assay [9] (PAK6, 1.0E-07 M); 77 % of control in assay [10] (EIF2AK2, 1.0E-06 M); 77 % of control in assay [10] (EIF2AK2, 1.0E-07 M). Moreover, the “Residual activity, SIK1” value in assay [4] (assay conc. 1.0E-06 M) is reported as 87 % of control; in [4] (assay conc. 1.0E-07 M), 101 % of control. In addition, the figures for the “Residual activity, PRKG1” value in [5] (assay conc. 1.0E-06 M) and in assay [5] (assay conc. 1.0E-07 M) were 101 % of control and 106 % of control, respectively. The “Residual activity, ROS” value in [6] (assay conc. 1.0E-06 M) was 89 % of control; in [6] (assay conc. 1.0E-07 M) it was 96 % of control.
For the compound `C#Cc1cc(Nc2ncnc3cc(I)ccc23)ccc1Cl` [Compound 41], the “Residual activity, TYRO3” value in assay [1] (assay conc. 1.0E-06 M) is reported as 91 % of control; in assay [1] (assay conc. 1.0E-07 M), 100 % of control. Besides, the “Residual activity, TRK-B” value in assay [2] (assay conc. 1.0E-06 M) was 98 % of control; in assay [2] (assay conc. 1.0E-07 M), 107 % of control. Further, the Residual activity was 71 % of control in assay [3] (CAMKK2, 1.0E-06 M); 96 % of control in assay [3] (CAMKK2, 1.0E-07 M); 77 % of control in assay [7] (PDK1, 1.0E-06 M); 96 % of control in [7] (PDK1, 1.0E-07 M); 98 % of control in assay [8] (JAK2, 1.0E-06 M); 105 % of control in assay [8] (JAK2, 1.0E-07 M). For the same compound, the Residual activity in assay [9] (PAK6, 1.0E-06 M) is recorded as 88 % of control; in [9] (PAK6, 1.0E-07 M) it was 97 % of control; in [10] (EIF2AK2, 1.0E-06 M), 58 % of control; in assay [10] (EIF2AK2, 1.0E-07 M), 72 % of control. Further, the “Residual activity, SIK1” value in assay [4] (assay conc. 1.0E-06 M) is 77 % of control; in assay [4] (assay conc. 1.0E-07 M), 93 % of control. For the same compound, the “Residual activity, PRKG1” value in assay [5] (assay conc. 1.0E-06 M) is 72 % of control; in assay [5] (assay conc. 1.0E-07 M), 88 % of control. For the same compound, the “Residual activity, ROS” value was 88 % of control in assay [6] (assay conc. 1.0E-06 M) and 95 % of control in assay [6] (assay conc. 1.0E-07 M).
